Active and inactive are the calls of the source.
Tests used:
[1] = target: T1, RNA-binding protein pos-1 (Caenorhabditis elegans, UniProt G5EF15); assay: inhibitors of POS-1/mex-3 RNA binding, dose response, biochemical, fluorescence polarization (AID 1964);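 further: purified POS-1 fused to maltose binding protein made in E. coli; potency of compounds blocking POS-1 binding to fluorescent RNA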
T1 sequence (G5EF15 whole entry): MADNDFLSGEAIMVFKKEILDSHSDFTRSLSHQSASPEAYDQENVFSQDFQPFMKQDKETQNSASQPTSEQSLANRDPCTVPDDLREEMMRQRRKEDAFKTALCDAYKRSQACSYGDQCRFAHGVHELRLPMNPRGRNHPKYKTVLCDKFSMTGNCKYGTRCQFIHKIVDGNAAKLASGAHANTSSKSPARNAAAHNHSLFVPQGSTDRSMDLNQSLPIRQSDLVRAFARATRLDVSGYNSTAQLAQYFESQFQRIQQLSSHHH

SUMO-activating enzyme [2] = target: T2, SUMO-activating enzyme (Homo sapiens, UniProt Q9UBT2); assay: SUMOylation inhibitor hit validation, confirmation, SUMOylation inhibitor project, biochemical, AlphaScreen (AID 2018); type: functional
T2 sequence (Q9UBE0 whole entry): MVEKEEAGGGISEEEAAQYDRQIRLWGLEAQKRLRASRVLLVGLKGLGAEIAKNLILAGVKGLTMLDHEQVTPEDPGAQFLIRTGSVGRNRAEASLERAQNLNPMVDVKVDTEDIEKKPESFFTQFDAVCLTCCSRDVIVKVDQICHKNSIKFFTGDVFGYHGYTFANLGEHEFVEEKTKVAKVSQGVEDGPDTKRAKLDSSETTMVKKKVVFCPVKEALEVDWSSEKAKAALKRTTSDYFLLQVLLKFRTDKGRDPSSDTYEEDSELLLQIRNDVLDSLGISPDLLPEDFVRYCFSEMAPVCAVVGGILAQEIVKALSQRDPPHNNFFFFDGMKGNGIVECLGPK
T2 sequence (Q9UBT2 whole entry): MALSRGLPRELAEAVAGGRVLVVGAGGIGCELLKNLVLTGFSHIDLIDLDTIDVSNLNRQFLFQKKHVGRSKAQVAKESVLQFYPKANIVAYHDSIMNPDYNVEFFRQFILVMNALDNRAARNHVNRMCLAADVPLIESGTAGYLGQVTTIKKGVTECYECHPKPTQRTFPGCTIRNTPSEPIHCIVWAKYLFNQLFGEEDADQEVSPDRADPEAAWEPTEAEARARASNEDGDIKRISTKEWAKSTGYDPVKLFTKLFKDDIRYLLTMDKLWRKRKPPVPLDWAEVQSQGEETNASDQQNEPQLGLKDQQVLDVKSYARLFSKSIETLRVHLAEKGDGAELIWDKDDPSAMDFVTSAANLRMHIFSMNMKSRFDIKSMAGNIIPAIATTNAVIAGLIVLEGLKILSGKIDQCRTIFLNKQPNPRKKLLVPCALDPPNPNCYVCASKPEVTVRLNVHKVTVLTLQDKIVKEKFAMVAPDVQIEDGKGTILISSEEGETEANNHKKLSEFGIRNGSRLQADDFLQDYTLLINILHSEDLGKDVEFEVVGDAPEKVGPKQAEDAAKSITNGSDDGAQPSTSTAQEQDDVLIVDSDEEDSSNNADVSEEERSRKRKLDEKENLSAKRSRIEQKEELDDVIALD

[3] = target: T3, Zinc finger protein mex-5 (Caenorhabditis elegans, UniProt Q9XUB2); assay: MEX-5/TCR-2 RNA interaction inhibitors, dose response, biochemical, C. elegans, fluorescence polarization (AID 1960)
T3 sequence (Q9XUB2 whole entry): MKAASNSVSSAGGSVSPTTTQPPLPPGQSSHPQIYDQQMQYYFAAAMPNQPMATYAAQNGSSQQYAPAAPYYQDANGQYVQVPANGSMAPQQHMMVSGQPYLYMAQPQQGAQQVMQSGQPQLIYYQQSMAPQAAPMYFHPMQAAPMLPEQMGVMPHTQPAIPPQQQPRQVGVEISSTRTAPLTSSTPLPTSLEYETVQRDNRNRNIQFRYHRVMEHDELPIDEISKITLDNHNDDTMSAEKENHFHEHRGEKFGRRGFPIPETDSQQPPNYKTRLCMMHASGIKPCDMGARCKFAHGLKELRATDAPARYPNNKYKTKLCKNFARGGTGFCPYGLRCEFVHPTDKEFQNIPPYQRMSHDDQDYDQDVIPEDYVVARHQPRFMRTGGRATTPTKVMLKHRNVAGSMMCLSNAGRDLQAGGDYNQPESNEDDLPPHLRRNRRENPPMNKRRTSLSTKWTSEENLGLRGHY

Large T antigen = Large T antigen (Simian virus 40, UniProt P03070); type: functional, Betapolyomavirus macacae;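 further: Confirmatory-stage PubChem screen for compounds that inhibit SV40 T antigen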
Sequence of Large T antigen (P03070 whole entry): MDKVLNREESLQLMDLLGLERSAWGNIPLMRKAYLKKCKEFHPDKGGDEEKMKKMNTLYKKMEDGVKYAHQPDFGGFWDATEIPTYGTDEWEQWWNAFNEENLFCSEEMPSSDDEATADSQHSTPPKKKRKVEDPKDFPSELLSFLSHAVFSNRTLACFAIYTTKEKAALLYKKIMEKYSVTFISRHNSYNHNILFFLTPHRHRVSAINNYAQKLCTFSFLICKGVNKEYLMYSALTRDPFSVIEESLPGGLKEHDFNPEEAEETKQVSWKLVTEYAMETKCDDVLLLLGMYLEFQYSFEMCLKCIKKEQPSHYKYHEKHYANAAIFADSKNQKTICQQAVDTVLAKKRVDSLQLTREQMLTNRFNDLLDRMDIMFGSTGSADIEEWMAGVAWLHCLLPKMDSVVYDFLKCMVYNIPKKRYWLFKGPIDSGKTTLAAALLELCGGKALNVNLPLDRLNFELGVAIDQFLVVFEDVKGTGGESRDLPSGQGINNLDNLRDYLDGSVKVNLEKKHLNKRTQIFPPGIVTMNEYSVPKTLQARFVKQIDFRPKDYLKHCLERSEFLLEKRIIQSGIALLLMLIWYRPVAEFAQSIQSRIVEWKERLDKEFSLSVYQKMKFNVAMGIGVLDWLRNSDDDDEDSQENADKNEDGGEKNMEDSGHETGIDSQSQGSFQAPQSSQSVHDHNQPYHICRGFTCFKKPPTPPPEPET

SUMO-activating enzyme [4] = target: T2, SUMO-activating enzyme; assay: inhibitors of in vitro SUMOylation cascade, primary screen, biochemical, HTRF, uHTS (AID 2006); type: protein-complex assay
Cytochrome P450 2C19 = Cytochrome P450 2C19 (Homo sapiens, UniProt P33261); assay: Cytochrome panel assay with activity outcomes. Panel member name: p450-cyp2c19 Compounds with AC50 equal or less than 10 uM are considered active; type: functional; settings: read-out: AC50
Sequence of Cytochrome P450 2C19 (P33261 whole entry): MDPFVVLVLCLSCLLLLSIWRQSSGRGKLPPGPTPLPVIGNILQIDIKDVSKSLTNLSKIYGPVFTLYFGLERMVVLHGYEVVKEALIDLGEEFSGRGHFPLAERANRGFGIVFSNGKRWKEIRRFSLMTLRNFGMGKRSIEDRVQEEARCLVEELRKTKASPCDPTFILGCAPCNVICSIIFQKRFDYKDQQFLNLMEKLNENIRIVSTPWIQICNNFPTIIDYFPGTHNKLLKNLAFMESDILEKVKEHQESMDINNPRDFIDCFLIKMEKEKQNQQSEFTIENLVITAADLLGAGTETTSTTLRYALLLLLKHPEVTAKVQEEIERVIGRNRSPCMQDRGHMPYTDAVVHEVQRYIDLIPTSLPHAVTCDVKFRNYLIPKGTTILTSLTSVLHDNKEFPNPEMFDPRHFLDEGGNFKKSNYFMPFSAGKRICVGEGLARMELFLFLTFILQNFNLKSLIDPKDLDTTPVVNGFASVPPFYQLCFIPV

Cytochrome P450 2D6 = Cytochrome P450 2D6 (Homo sapiens, UniProt P10635);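 further: CYP2D6 member of a cytochrome P450 panel assay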
Sequence of Cytochrome P450 2D6 (P10635 whole entry): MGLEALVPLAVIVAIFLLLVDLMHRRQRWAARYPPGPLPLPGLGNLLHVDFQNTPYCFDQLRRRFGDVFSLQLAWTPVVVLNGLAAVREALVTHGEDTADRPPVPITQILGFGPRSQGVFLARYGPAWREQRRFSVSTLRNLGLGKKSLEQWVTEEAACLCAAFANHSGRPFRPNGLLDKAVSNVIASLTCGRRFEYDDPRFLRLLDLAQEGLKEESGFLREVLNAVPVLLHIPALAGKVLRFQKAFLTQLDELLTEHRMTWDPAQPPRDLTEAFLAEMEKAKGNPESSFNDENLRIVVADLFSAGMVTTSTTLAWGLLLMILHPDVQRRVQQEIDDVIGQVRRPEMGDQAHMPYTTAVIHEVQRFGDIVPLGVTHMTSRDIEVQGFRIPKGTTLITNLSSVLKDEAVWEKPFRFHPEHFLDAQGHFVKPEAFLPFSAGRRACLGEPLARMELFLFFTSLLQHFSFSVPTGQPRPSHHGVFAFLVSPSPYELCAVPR

Cytochrome P450 1A2 = target: T4, Cytochrome P450 1A2 (Homo sapiens, UniProt P05177);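 further: PubChem cytochrome P450 panel assay, CYP1A2 panel member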
T4 sequence (P05177 whole entry): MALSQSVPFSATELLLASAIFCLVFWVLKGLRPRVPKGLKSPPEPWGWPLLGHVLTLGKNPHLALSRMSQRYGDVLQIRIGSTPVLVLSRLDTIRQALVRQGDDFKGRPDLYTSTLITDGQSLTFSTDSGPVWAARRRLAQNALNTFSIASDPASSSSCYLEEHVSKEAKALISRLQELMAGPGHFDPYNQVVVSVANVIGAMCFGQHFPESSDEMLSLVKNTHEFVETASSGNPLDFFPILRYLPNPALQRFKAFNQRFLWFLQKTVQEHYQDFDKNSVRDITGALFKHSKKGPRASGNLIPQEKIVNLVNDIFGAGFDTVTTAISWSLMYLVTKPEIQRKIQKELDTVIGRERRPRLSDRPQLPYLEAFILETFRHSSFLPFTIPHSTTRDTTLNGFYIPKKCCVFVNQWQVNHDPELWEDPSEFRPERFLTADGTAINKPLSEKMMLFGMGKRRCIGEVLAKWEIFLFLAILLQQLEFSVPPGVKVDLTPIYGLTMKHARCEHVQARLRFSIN

[5] = target: Cyclin-dependent kinase 5/CDK5 activator 1 (Homo sapiens, UniProt Q00535); assay: CDK5/p35 kinase inhibitors, dose response, biochemical, cherry-picked samples, set 2 (AID 504545)
Sequence of Cyclin-dependent kinase 5/CDK5 activator 1 (Q00535 whole entry): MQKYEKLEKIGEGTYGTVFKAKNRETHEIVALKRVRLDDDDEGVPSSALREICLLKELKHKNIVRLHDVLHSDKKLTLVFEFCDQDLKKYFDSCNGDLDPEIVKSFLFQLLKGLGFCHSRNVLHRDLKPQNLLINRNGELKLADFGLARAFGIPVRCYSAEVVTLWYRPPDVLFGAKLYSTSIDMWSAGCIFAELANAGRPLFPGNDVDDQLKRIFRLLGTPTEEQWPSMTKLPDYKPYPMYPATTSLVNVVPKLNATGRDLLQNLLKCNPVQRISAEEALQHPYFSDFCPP
Sequence of Cyclin-dependent kinase 5/CDK5 activator 1 (Q15078 whole entry, further chain): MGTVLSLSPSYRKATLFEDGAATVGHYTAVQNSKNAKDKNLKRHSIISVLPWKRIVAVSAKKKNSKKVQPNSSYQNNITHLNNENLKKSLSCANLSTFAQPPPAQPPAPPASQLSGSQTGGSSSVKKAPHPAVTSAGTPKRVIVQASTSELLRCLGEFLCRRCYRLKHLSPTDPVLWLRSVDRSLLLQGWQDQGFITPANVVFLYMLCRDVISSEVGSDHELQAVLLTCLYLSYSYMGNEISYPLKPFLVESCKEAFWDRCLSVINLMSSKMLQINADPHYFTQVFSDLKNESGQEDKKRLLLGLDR

[6] = target: T5, Endoribonuclease toxin MazF (Escherichia coli K-12, UniProt P0AE70); assay: MazF toxin RNase activators, dose response, biochemical, fluorescence, single-stranded RNA substrate, uHTS hits (AID 588481); type: functional
T5 sequence (P0AE70 whole entry): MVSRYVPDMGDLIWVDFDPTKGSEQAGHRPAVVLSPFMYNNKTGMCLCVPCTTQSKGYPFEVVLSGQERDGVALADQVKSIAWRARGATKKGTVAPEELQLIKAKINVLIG

[7] = target: T5, Endoribonuclease toxin MazF; assay: fluorescent RNA oligo signal without MazF, dose response, counter-screen for MazEF activator project, biochemical, fluorescence, single-stranded RNase substrate (AID 588502); type: functional
[8] = target: Dual specificity tyrosine-phosphorylation-regulated kinase 1A (Rattus norvegicus, UniProt Q63470); type: biochemical, Homo sapiens
[9] = target: Ras and Rab interactor 1/Tyrosine-protein kinase ABL1 (Homo sapiens, UniProt P00519+Q13671); type: functional;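 further: biochemical TR-FRET dose-response test measuring inhibition of binding between Rin1 and Abl proteins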
[10] = target: T6, Rac GTPase-activating protein 1 (Homo sapiens, UniProt Q9H0H5); assay: MgcRacGAP GTPase-activating activity inhibitors, confirmation, biochemical, ADP Hunter fluorescence, primary and confirmatory (AID 624330); type: functional
T6 sequence (Q9H0H5 whole entry): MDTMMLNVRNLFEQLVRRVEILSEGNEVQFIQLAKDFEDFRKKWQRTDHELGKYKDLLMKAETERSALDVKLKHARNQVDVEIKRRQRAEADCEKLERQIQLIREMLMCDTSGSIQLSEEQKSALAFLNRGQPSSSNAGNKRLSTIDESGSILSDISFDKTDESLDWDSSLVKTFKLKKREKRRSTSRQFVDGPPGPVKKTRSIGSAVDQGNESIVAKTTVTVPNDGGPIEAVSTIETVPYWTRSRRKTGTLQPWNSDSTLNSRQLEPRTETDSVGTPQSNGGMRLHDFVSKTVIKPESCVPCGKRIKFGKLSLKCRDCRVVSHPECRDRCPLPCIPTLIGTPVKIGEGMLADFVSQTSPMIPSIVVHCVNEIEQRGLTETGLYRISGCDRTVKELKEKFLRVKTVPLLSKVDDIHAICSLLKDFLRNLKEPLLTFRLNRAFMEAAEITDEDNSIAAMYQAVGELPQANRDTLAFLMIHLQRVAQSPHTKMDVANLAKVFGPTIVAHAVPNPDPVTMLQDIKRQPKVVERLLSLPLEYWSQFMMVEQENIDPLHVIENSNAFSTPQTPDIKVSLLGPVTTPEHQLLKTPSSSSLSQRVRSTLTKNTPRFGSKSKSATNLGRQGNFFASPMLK

[11] = target: Signal transducer and activator of transcription 3 (Homo sapiens, UniProt P40763); assay: STAT3 activators, late-stage profile, late-stage follow-up, cell-based, STAT1 reporter, BCL3 qPCR, cytotoxicity, panel member STAT3 Activation (AID 2049)
Sequence of Signal transducer and activator of transcription 3 (P40763 whole entry): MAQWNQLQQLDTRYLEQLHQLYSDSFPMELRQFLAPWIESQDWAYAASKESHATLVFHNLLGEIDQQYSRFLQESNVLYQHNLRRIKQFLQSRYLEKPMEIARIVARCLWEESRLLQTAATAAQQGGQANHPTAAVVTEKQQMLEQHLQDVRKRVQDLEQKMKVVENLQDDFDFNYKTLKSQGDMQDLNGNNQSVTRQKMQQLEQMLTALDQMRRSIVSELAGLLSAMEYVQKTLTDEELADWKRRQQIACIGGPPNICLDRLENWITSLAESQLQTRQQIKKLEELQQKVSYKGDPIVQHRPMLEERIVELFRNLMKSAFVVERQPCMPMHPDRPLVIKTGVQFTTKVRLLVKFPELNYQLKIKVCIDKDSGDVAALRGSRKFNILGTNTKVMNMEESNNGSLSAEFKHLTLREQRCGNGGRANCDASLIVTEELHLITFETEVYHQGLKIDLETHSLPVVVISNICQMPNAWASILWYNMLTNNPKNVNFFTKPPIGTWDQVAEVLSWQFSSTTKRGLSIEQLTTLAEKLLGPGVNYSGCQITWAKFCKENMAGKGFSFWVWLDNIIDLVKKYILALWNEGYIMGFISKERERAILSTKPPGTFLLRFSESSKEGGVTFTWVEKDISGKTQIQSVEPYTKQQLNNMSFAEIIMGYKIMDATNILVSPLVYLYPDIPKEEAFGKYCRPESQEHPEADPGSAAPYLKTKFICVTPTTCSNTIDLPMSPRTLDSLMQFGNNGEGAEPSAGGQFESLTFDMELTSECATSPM

Question: N=C1/C(=C\c2ccc(SCc3ccco3)o2)C(=O)N=C2SC=NN12 was tested. Which EC50 [1] did it give?
Answer: > 300 µM (not active)

Question: What about the IC50 (SUMO-activating enzyme [2]) of the same compound?
Answer: 2.28 µM (active)

Question: And the EC50 [3]?
Answer: > 300 µM (not active)

Question: What about the IC50 (Large T antigen) of the same compound?
Answer: 59.6 µM (active)

Question: And the IC50 (SUMO-activating enzyme [4])?
Answer: 32.7 µM (active)

Question: And the AC50 (Cytochrome P450 2C19)?
Answer: 15.8 µM (inconclusive)

Question: And the AC50 (Cytochrome P450 2D6)?
Answer: 15.8 µM (inconclusive)

Question: What about the AC50 (Cytochrome P450 1A2) of the same compound?
Answer: 1.58 µM (inconclusive)

Question: Which AC50 [5] does the source give for O=c1c(O)c(-c2ccc(O)c(O)c2)oc2cc(O)ccc12 here?
Answer: 1.69 µM (active)

Question: And the EC50 [6]?
Answer: > 99 µM (inactive)

Question: And the EC50 [7]?
Answer: > 99 µM (inactive)

Question: What about the AC50 [8] of the same compound?
Answer: 0.248 µM (active)

Question: What about the IC50 [9] of the same compound?
Answer: > 73.5 µM (inactive)

Question: And the IC50 [10]?
Answer: 45.7 µM (active)

Question: How did the EC50 [11] turn out when COc1cc(NC(=O)c2cc(C(C)C)on2)c(OC)cc1Cl was run?
Answer: 0.00104 µM (active)

Source: ChEMBL document CHEMBL1201862, “PubChem BioAssay data set” (2004)
